This is an account of results in patent US20250387359A1, “COMPOUNDS AND METHODS FOR THE TREATMENT OF PARASITIC INFECTIONS” (THE BOARD OF TRUSTEES OF THE UNIVERSITY OF ILLINOIS, priority 2019, published 2025).

The nature of series [1]: Compound cytotoxicity assay (WST-1) in HCT-8 cells. Format: cell-based, human. The settings on record: human; HCT-8 cells, 24 h, WST-1. The procedure:
Compound cytotoxicity assay. […] A colorimetric assay using the cell proliferation reagent WST-1 (Roche, USA) for the quantification of cell viability was performed. […] When the cells were confluent, the old medium was replaced with fresh medium with or without varying concentrations of chemical compound. After 24 h of culture, 10 μl of the cell proliferation reagent WST-1, (for quantification of cell viability) was added to each well, mixed and the plates incubated for 1 h at 37 C with 5% CO2 in the dark. […] Molecular Devices, USA).
Background: Tetrazolium assays rely on reduction of a dye to a coloured formazan, in cell work by metabolically active cells.

The next series has as its system C. parvum. In words: Histopathology of distal small intestine of C. parvum infected mice. Format: in vivo, Cryptosporidium parvum. The note with it: lower small intestine, H&E, NSC158011 400 mg/kg, NSC10447 250, 500 or 1000 mg/kg, paromomycin 100 mg/kg. As to the method: In vivo testing of the anti-Cryptosporidium effect of CpLDH inhibitors. Gamma interferon knockout mice (B6.129S7-Ifng), 8 weeks of age, were purchased from Charles River, USA. The care and use of the mice was done following the guidelines of protocol number 17024 approved by the University of Illinois at Urbana-Champaign, USA. The animals were allowed to acclimatize for 1 week before experiments commenced. Stock solutions of recombinant CpLDH inhibitors reconstituted in DMSO were diluted in sterile distilled water to reduce the final amount of DMSO in the solution to less than 1% (v/v) before administering them to mice. Prior to testing the anti-Cryptosporidium effect of the inhibitors in mice, the tolerability of each inhibitor was tested by oral gavage using varying dosages (100-2000 mg/kg body weight) of each inhibitor in groups of mice (three mice for each dose) daily for 7 days. Mice were observed daily for signs of toxicity including changes from normal physical activity, respiration, body temperature, feeding, posture, fur condition or occurrence of death. […] The subsequent dosages of NSC10447 used in the mice infection assays were 250, 500 and 1000 mg/kg mouse body weight, while the NSC158011 dosages used were 100, 200 and 400 mg/kg mouse body weight. Mice were allocated to groups as follows: “Infected plus inhibitor treatment”; “Infected minus inhibitor treatment”; “Uninfected minus inhibitor treatment” and “Infected plus paromomycin treatment”. Each group contained at least three mice. Each mouse in the infection groups received 5,000 C. parvum oocysts (resuspended in 50 μl of PBS) by oral gavage. Mice were housed individually in cages lined with sterile gauze as bedding. […] An equivalent volume of PBS containing a cocktail of penicillin (100 units/ml), streptomycin (100 μg/ml), chloramphenicol (34 μg/ml) and amphotericin (0.25 μg/ml) was added to the fecal samples and stored at 4° C. until use for quantification of C. parvum genomic DNA load. […]

Another series can be described thus: Tolerability in mice. It counts as in vivo. The note with it: B6.129S7-Ifng (gamma interferon knockout), mouse, in vivo, po, 7 days. As to the method:
In vivo testing of the anti-Cryptosporidium effect of CpLDH inhibitors. Gamma interferon knockout mice (B6.129S7-Ifng), 8 weeks of age, were purchased from Charles River, USA. The care and use of the mice was done following the guidelines of protocol number 17024 approved by the University of Illinois at Urbana-Champaign, USA. The animals were allowed to acclimatize for 1 week before experiments commenced. Stock solutions of recombinant CpLDH inhibitors reconstituted in DMSO were diluted in sterile distilled water to reduce the final amount of DMSO in the solution to less than 1% (v/v) before administering them to mice. Prior to testing the anti-Cryptosporidium effect of the inhibitors in mice, the tolerability of each inhibitor was tested by oral gavage using varying dosages (100-2000 mg/kg body weight) of each inhibitor in groups of mice (three mice for each dose) daily for 7 days. Mice were observed daily for signs of toxicity including changes from normal physical activity, respiration, body temperature, feeding, posture, fur condition or occurrence of death. […] An equivalent volume of PBS containing a cocktail of penicillin (100 units/ml), streptomycin (100 μg/ml), chloramphenicol (34 μg/ml) and amphotericin (0.25 μg/ml) was added to the fecal samples and stored at 4° C. until use for quantification of C. parvum genomic DNA load. […]

A further series concerns Cryptosporidium parvum. In words: In vitro anti-Cryptosporidium effect in HCT-8 cells (immunofluorescence assay). The settings on record: for IC50: Cryptosporidium parvum, HCT-8 cells. It counts as cell-based. As to the method: In vitro testing of the anti-Cryptosporidium effect of CpLDH inhibitors. HCT-8 cells were cultured in supplemented RPMI-1640 medium in 96-well plates. When the cells were confluent, old medium was replaced with fresh medium. To one set of wells, varying concentrations of recombinant CpLDH inhibitors (reconstituted in DMSO and diluted in RPMI medium) were added, while another set was left without inhibitors. Paromomycin was used as a positive control drug reconstituted in distilled sterile water. Then, 4×10^4 freshly excysted sporozoites were added to each well and incubated at 37° C. with 5% CO2. After 2 h incubation, varying concentrations of CpLDH inhibitors were added to the set of infected cells that were not treated initially. Control infected cells without inhibitors, but with added DMSO volumes equivalent to those used in the wells with inhibitors, were included. The cells were maintained in culture for a total of either 48 h or 72 h and processed for immunofluorescence assay as previously described (Int. J. Parasitol. 2017; 47(13), 867-874). Briefly, medium was decanted, and the cells fixed with methanol-acetic acid (9:1) for 2 minutes at room temperature. The cells were rehydrated and permeabilized by two successive washes with buffer (0.1% Triton X-100, 0.35 M NaCl, 0.13 M Tris-base, pH 7.6) and blocked with 5% normal goat serum, followed by staining with antibody to C. parvum (SporoGlo; Waterborn, Inc.) overnight at 4° C. The stained cells were washed twice with PBS, followed by water, and then imaged with an inverted fluorescence microscope. Fluorescence quantification was done using ImageJ version 1.37v software (NIH). Assays were performed in triplicate and repeated at least thrice.

Entries after “also recorded” stand apart in the source; their conditions may differ. Read-outs that look alike come from different tables or passages of the source.

Broadly, the IC50 is the midpoint of a concentration-inhibition curve. In series [1], `O=C1c2ccccc2C(=O)c2c(O)c(O)cc(O)c21` [NSC10447] gave an IC50 at 24 h of 290 µM. The “histopathology of intestinal epithelium and villi” value in the series with C. parvum is “prevented villous atrophy and maintained the integrity of the intestinal mucosa; also recorded: intact intestinal epithelium with prominent villi”. Moreover, the “highest tolerable dose (no toxicity signs)” value in the series “Tolerability in mice” amounted to 1000 mg/kg. Besides, in the series with Cryptosporidium parvum (48 h post-infection, concentrations at least 50% lower than cytotoxicity IC50), the “effect on C. parvum proliferation in initial screen” value is “significantly (P<0.05) inhibit C. parvum proliferation”. Besides, the IC50 in the series on Cryptosporidium parvum (48 h, compound added at the time of infection, read-out: IC50, inhibition of C. parvum growth at 48 h p.i.) came out at 72.7 µM; with Cryptosporidium parvum (72 h, compound added at the time of infection, read-out: IC50, inhibition of C. parvum growth at 72 h p.i.) it was 83.6 µM; with Cryptosporidium parvum (compound added 2 h post-infection, read-out: IC50, inhibition of C. parvum growth at 48 h p.i. (2 h)), 79.5 µM; in the series on Cryptosporidium parvum (compound added 2 h post-infection, read-out: IC50, inhibition of C. parvum growth at 72 h p.i. (2 h)), 95.2 µM.
